In patent US11090326B2, “Fixed-dose pharmaceutical composition comprising rifabutin, clarithromycin, and clofazimine” (RedHill Biopharma Ltd., priority 2008, dated 2021):
Read-outs that look alike come from different tables or passages of the source.

Columns and labels:
[1] = Bioavailability study: single-dose plasma pharmacokinetics of 2 test formulations of triple combination capsules
Excerpt: The objectives of this study were to 1) determine and compare the rate and extent of absorption and 2) to assess the safety and tolerability of 2 test formulations of a combination product of clarithromycin, rifabutin and clofazimine (herein after “triple combination”).
This study followed a randomized, open-label, single-dose, 1-way 2-arm parallel design in 24 normal, healthy, non-smoking male and female subjects.
Subjects were admitted to the clinic the day before dosing, and remained until the 24.00 hour post-dose blood draw, at which time they were allowed to leave the clinic and after which they were required to return for subsequent blood draws.
Following an overnight fast of at least 10 hours, subjects began a high fat content meal 30 minutes prior to drug administration. Subjects consumed this meal in 30 minutes or less; however, the study drug was administered 30 minutes after the start of the meal. The FDA standard high-fat content breakfast consisted of the following: 2 eggs fried in butter, 2 strips of bacon, 2 slices of toast with butter, 4 ounces of hash brown potatoes and 8 fluid ounces (about.240 mL) of whole milk.
Following an overnight fast of at least 10 hours, and 30 minutes after the start of a high fat content meal, subjects received one of the following treatments at 0.00 hour on Day 1 of the study period according to a randomization scheme:
The medications were administered orally. The drugs were given 1 or more capsules at a time. All capsules were ingested within 1 minute.
During the study period, 19 blood samples (1×4 mL and 1×6 mL tube for each sampling time point) were collected from each subject by direct venipuncture or by Vasofix® intravenous catheter using pre-cooled, labelled blood collection tubes containing potassium ethylenediaminetetraacetic acid (EDTA) as the anticoagulant. Blood samples were collected at 0.00 (pre-dose), 0.25, 0.50, 0.75, 1.00, 1.50, 2.00, 2.50, 3.00, 4.00, 6.00, 8.00, 10.00, 12.00, 16.00, 24.00, 48.00, 60.00, and 96.00 hours post-dose. The clock times of all blood draws for plasma concentration analyses were recorded.
The 6 mL tubes were used to measure clarithromycin and 14-hydroxyclarithromycin. The 4 mL tubes were used to measure rifabutin, 25-O-desacetylrifabutin and clofazimine.
(§1) The blood samples were stored in an ice bath before centrifugation and were centrifuged as soon as possible under refrigerated conditions (at 4° C.) at 3500 rpm for 7 minutes. The collected plasma from each blood collection tube was aliquotted into pre-cooled labelled polypropylene tubes. A minimum of 1.5 mL of plasma was transferred from the 6 mL tubes into the first polypropylene tube, and all remaining plasma, if any, was transferred into a second polypropylene tube. The samples were kept in an ice bath, and flash frozen in an upright position, then stored at −70±10° C. until assayed.
as §1, with “In another procedure, the blood” for “The blood”, “of 0.8” for “of 1.5”, “the 4 mL,” for “the 6 mL”
Upon completion of the clinical portion of the study, all samples were analysed for clarithromycin and 14-hydroxyclarithromycin in the plasma samples or for rifabutin, 25-O-desacetylrifabutin and clofazimine in the plasma samples.
Clarithromycin and 14-hydroxyclarithromycin—Information about these analytes was obtained using routine methods known in the art.

[2] = clinical; details: human, in vivo, 90 mg
Excerpt: Gatti et al. (1998) conducted a comparative study of rifabutin absorption and disposition in HIV-infected patients with or without wasting syndrome.

[3] = single 300 mg dose of rifabutin, fasting; 10 HIV patients without wasting syndrome (Gatti et al., 1998); cited from earlier work
[4] = Literature Cmax of clarithromycin (Chu et al., 1993); details: in vivo; clarithromycin 190 mg dose; read-out: Cmax, literature value scaled to dose of the study
Protocol: The results obtained from dry and PEG formulations of triple combination capsules were approximately proportional to literature findings. Chu et al. (1993) reported that the rise of clarithromycin peak concentrations occur non-linearly to dose which might explain any slight disproportionality between the literature values and those obtained from triple combination capsules dry and PEG formulations.
Clarithromycin—500 mg (four 125-mg capsules, Abbott Laboratories) every 12 hours for 5 doses.

[5] = single dose of 250 mg of clarithromycin; cited from earlier work
[6] = clofazimine 200 mg dose, fed (Nix et al., 2004); cited from earlier work
[7] = Literature Cmax of clofazimine (Nix et al., 2004); details: in vivo; clofazimine 20 mg dose; read-out: Cmax, literature value scaled to dose of the study
[8] = 25-O-desacetylrifabutin, geometric mean ratio dry/PEG formulation of triple combination capsules
[9] = rifabutin, geometric mean ratio dry/PEG formulation of triple combination capsules
[10] = clarithromycin, geometric mean ratio dry/PEG formulation of triple combination capsules
[11] = clofazimine, geometric mean ratio dry/PEG formulation of triple combination capsules

For “25-O-desacetylrifabutin [25-0-DESACETYLRIFABUTIN]”, the “Relative bioavailability, Ratio of Means, AUC0-t” value [1, 8] was 73.95%, the “Relative bioavailability, Ratio of Means, Cmax” value [1, 8] was 73.43% and the “Relative bioavailability, Ratio of Means, AUC0-inf” value ([1]; 25-O-desacetylrifabutin, geometric mean ratio dry/PEG formulation, approximately 65% of subjects excluded) was 86.06%.
In the case of `CO[C@H]1/C=C/O[C@@]2(C)Oc3c(C)c(O)c4c(c3C2=O)C2=NC3(CCN(CC(C)C)CC3)NC2=C(NC(=O)/C(C)=C\C=C\[C@H](C)[C@H](O)[C@@H](C)[C@@H](O)[C@@H](C)[C@H](OC(C)=O)[C@@H]1C)C4=O` [RIFABUTIN, rifabutin], the Cmax [2] is reported as 0.102 µg/mL, the “Relative bioavailability, Ratio of Means, AUC0-inf” value [1, 9] is reported as 73.23% and the “Relative bioavailability, Ratio of Means, AUC0-t” value [1, 9] is reported as 77.00%. For the same molecule, the “Relative bioavailability, Ratio of Means, Cmax” value [1, 9] was 88.74% and the “Cmax (peak concentration)” value [3] was 0.34 ± 0.14 µg/mL.
In the case of `CC[C@H]1OC(=O)[C@H](C)[C@@H](O[C@H]2C[C@@](C)(OC)[C@@H](O)[C@H](C)O2)[C@H](C)[C@@H](O[C@@H]2O[C@H](C)C[C@H](N(C)C)[C@H]2O)[C@](C)(OC)C[C@@H](C)C(=O)[C@H](C)[C@@H](O)[C@]1(C)O` [CLARITHROMYCIN, clarithromycin], the Cmax [4] is reported as 0.593 µg/mL, the “Relative bioavailability, Ratio of Means, AUC0-inf” value [1, 10] is reported as 80.78% and the “Relative bioavailability, Ratio of Means, AUC0-t” value [1, 10] is reported as 80.34%. The “Relative bioavailability, Ratio of Means, Cmax” value [1, 10] was 75.03% and the Cmax [5] was 0.78 ± 0.25 µg/mL.
In the case of `CC(C)/N=c1\cc2n(-c3ccc(Cl)cc3)c3ccccc3nc-2cc1Nc1ccc(Cl)cc1` [CLOFAZIMINE, clofazimine], the Cmax [6] is given as 0.227 µg/mL, the “Relative bioavailability, Ratio of Means, AUC0-t” value [1, 11] is given as 102.38% and the “Relative bioavailability, Ratio of Means, Cmax” value [1, 11] is given as 118.63%. For the same molecule, the “Relative bioavailability, Ratio of Means, AUC0-t” value ([1]; clofazimine, geometric mean ratio dry/PEG formulation of triple combination capsules, listed as clofazimine) was 102%, the “Relative bioavailability, Ratio of Means, AUC0-inf” value ([1]; clofazimine, geometric mean ratio dry/PEG formulation, approximately 50% (A) and 75% (B) of subjects excluded) was 120.52% and the Cmax [7] was 0.023 µg/mL.
